Ki, inhibition and IC50 data for 15 molecules are collected here from ChEMBL document CHEMBL1144166 (Bioorg Med Chem, 2008).

A word on the Ki: it is the dissociation constant of the complex between target and ligand, obtained from inhibition or displacement. A lower Ki goes with tighter binding. What is called inhibition is the share of the control response that was lost under treatment. What is called IC50 is the concentration that gives 50% inhibition.

Several values for one entry are separate records, joined by “and”; a condition that tells them apart may be missing. Equal values may be shown once.

Molecular target in one test: not listed separately
Briefly: Inhibition of baboon liver mitochondrial monoamine oxidase B using 30 to 120 uM of MMTP by spectrophotometry. Also noted: species or system Papio.
For `Cn1c(=O)c2c(nc(/C=C/C=C/c3cccc(Br)c3)n2C)n(C)c1=O`, the affinity corresponds to a Ki of 17.2 nM.

Regarding `Cn1c(=O)c2c(nc(/C=C/C=C/c3cccc(Cl)c3)n2C)n(C)c1=O`, the inhibitory constant (Ki) came out at 42.1 nM.

The molecule `Cn1c(=O)c2c(nc(/C=C/C=C/c3ccccc3)n2C)n(C)c1=O` displayed a Ki of 149 nM.

`Cn1c(=O)c2c(nc(-c3cccc(Cl)c3)n2C)n(C)c1=O` yielded a Ki of 36000 nM. This Ki lies about 240-fold higher than the previous one.

Molecule `CCn1c(/C=C/C=C/c2ccccc2)nc2c1c(=O)n(C)c(=O)n2C` registered a Ki of 1710 nM.

`Cn1c(=O)c2c(nc(/C=C/c3cccc(Br)c3)n2C)n(C)c1=O` registered a Ki of 62.7 nM.

The molecule `Cn1c(=O)c2c(nc(/C=C/c3ccc(Cl)c(Cl)c3)n2C)n(C)c1=O` returned a Ki of 18.9 nM. This Ki is about 3.3-fold lower than that of the molecule before.

The molecule `Cn1c(=O)c2c(nc(-c3ccccc3)n2C)n(C)c1=O` registered a Ki of 86200 nM. Compared with the last molecule, the Ki is about 4600-fold higher.

For `Cn1c(=O)c2c(nc(Cc3cccc(C(F)(F)F)c3)n2C)n(C)c1=O`, the affinity, expressed as Ki, was 97600 nM.

As for `Cn1c(=O)c2c(nc(Cc3cccc(Cl)c3)n2C)n(C)c1=O`, the Ki stood at 54600 nM.

As to `Cn1c(=O)c2c(nc(/C=C/C=C/c3cccc(F)c3)n2C)n(C)c1=O`, the Ki is 46.4 nM.

The next test relates to Papio. Briefly: Inhibition of baboon liver mitochondrial monoamine oxidase B at 30 uM by spectrophotometry.
Molecule `CCn1c(=O)c2c(nc(/C=C/C=C/c3ccccc3)n2CC)n(CC)c1=O` returned an inhibition of 14.6%.

In turn, `CCn1c(=O)c2c(nc(/C=C/C=C/c3ccccc3)n2C)n(CC)c1=O` gave an inhibition of 32.7%.

In a further test the test system is Papio. Briefly: Inhibition of baboon liver mitochondrial monoamine oxidase B at 1000 uM by spectrophotometry.
For `Cn1c(=O)c2c(nc(-c3cccc(C(F)(F)F)c3)n2C)n(C)c1=O`, the inhibition was found to be 24%.

The molecule `Cn1c(=O)c2c(nc(Cc3ccccc3)n2C)n(C)c1=O` registered an inhibition of 18%.

Molecular target in the next test: not listed separately
Briefly: Inhibition of baboon liver mitochondrial monoamine oxidase B using 50 uM of MMTP by spectrophotometry. Also on record: species or system Papio.
In turn, `Cn1c(=O)c2c(nc(/C=C/C=C/c3cccc(Br)c3)n2C)n(C)c1=O` displayed an IC50 of 37.9 nM and a Ki of 21.9 nM.

`Cn1c(=O)c2c(nc(/C=C/C=C/c3cccc(Cl)c3)n2C)n(C)c1=O` had an IC50 of 96.3 nM and a Ki of 55.6 nM.

Molecule `Cn1c(=O)c2c(nc(/C=C/C=C/c3ccccc3)n2C)n(C)c1=O` had an IC50 of 383 nM and a Ki of 221 nM.

`CCn1c(/C=C/C=C/c2ccccc2)nc2c1c(=O)n(C)c(=O)n2C` showed an IC50 of 2370 nM and a Ki of 1370 nM.

Molecule `Cn1c(=O)c2c(nc(/C=C/c3cccc(Br)c3)n2C)n(C)c1=O` gave a half-maximal inhibitory concentration (IC50) of 107 nM and a Ki of 61.8 nM.

With `Cn1c(=O)c2c(nc(/C=C/c3ccc(Cl)c(Cl)c3)n2C)n(C)c1=O`, the concentration for half-maximal inhibition (IC50) is 28.4 nM and 16.4 nM.

As for `Cn1c(=O)c2c(nc(/C=C/C=C/c3cccc(F)c3)n2C)n(C)c1=O`, the IC50 came out at 89 nM and the inhibitory constant (Ki) is 51.4 nM.

For a further test, the target named is Adenosine receptor A2a (Rattus norvegicus, UniProt P30543).
Adenosine receptor A2a, sequence (P30543 whole entry): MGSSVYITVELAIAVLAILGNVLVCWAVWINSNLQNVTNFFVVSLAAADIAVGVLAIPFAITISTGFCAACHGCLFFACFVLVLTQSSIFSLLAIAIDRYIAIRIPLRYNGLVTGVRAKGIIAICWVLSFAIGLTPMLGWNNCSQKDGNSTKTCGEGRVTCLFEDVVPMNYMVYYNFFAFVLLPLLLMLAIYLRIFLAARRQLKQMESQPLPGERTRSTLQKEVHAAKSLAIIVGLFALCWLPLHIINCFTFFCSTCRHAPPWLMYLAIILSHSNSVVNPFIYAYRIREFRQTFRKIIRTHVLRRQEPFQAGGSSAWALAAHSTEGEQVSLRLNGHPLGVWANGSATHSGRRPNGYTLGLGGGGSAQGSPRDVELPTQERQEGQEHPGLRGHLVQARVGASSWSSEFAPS
Description: Displacement of [3H]NECA from Sprague-Dawley rat adenosine A2A receptor by scintillation counting
For `Cn1c(=O)c2c(nc(/C=C/C=C/c3cccc(Br)c3)n2C)n(C)c1=O`, the Ki turned out to be 59.1 nM.

As for `Cn1c(=O)c2c(nc(/C=C/C=C/c3cccc(Cl)c3)n2C)n(C)c1=O`, the Ki was found to be 104 nM.

`Cn1c(=O)c2c(nc(/C=C/C=C/c3ccccc3)n2C)n(C)c1=O` had a Ki of 153 nM.

For `CCn1c(/C=C/C=C/c2ccccc2)nc2c1c(=O)n(C)c(=O)n2C`, the Ki came to 13.5 nM. Against the preceding molecule, the Ki is about 11-fold lower.

Take `CCn1c(=O)c2c(nc(/C=C/C=C/c3ccccc3)n2CC)n(CC)c1=O`: the Ki worked out at 7.73 nM.

Regarding `CCn1c(=O)c2c(nc(/C=C/C=C/c3ccccc3)n2C)n(CC)c1=O`, the Ki is 2.74 nM.

`Cn1c(=O)c2c(nc(/C=C/C=C/c3cccc(F)c3)n2C)n(C)c1=O` returned a Ki of 114 nM.
